Assay results: patent publication US20170001988A1, “PIPERIDINE AND PIPERAZINE DERIVATIVES AND THEIR USE IN TREATING VIRAL INFECTIONS AND CANCER” (THE UNITED STATES OF AMERICA, AS REPRESENTED BY THE …, priority 2013, published 2017)
Like-named read-outs stand apart in the source and are kept apart here.

What was measured:
[1] = tested on: HCV-Luc; experiment: HCV-Luc infection assay; format: cell-based; settings: for EC50: Hepatitis C virus
[2] = in vitro; settings: human
Text: (§1) EC50 was generated using the HCV-Luc infection assay and IC50 using the ATPLite assay.
(§2) EC50 was generated using the HCV-Luc infection assay and TC50 using the ATPLite assay.
(§3) The cytotoxicity of the compounds was further evaluated in HepG2 cells and primary human hepatocytes.

[3] = tested on: Huh7.5.1 cells; experiment: in vitro
Text: as §1, §2, §3

| SMILES | CC50 ([3]; human) | EC50 ([1]; Table 3, read-out: EC50) | Selective Index ([1]; Table 3) | also measured |
| --- | --- | --- | --- | --- |
| c1ccc(CCN(Cc2ccccc2)C2CCN(Cc3ccccc3)CC2)cc1 [Benzyl, N,1-dibenzyl-N-phenethylpiperidin-4-amine] | – | – | – | EC50 ([1]; Table 6, read-out: EC50): 0.32 µM; CC50 [2]: 30.9 µM |
| CC(C)CN1CCC(N(CCc2ccccc2)Cc2ccccc2)CC1 [Isobutyl, N-Benzyl-1-isobutyl-N-phenethylpiperidin-4-amine] | – | – | – | EC50 ([1]; Table 6, read-out: EC50): 4.76 µM; CC50 [2]: 37.6 µM |
| c1ccc(C(c2ccccc2)c2ccncc2)cc1 | 65.1 ± 2.1 µM | – | – | EC50 ([1]; Table 5, read-out: EC50): > 31.5 µM; Selective Index ([1]; Table 5): <2 |
| c1ccc(CCN(Cc2ccccc2)C2CCNCC2)cc1 [H, N-Benzyl-N-phenethylpiperidin-4-amine] | – | – | – | EC50 ([1]; Table 6, read-out: EC50): 0.12 µM; CC50 [2]: 23.5 µM |
| Clc1ccc(CN2CCC(N(CCc3ccccc3)Cc3ccccc3)CC2)cc1 [4-Chlorobenzyl, N-Benzyl-1-(4-chlorobenzyl)-N-phenethylpiperidin-4-amine] | – | – | – | EC50 ([1]; Table 6, read-out: EC50): 9.24 µM; CC50 [2]: > 100 µM |
| CN1CCC(N(CCc2ccccc2)Cc2ccccc2)CC1 [Me, N-Benzyl-1-methyl-N-phenethylpiperidin-4-amine] | – | – | – | EC50 ([1]; Table 6, read-out: EC50): 0.92 µM; CC50 [2]: 41.1 µM |
| Clc1ccc(C(c2ccc(Cl)cc2)N2CCCCC2)cc1 | 69 ± 0.9 µM | – | – | EC50 ([1]; Table 5, read-out: EC50): 17.4 ± 2.8 µM; Selective Index ([1]; Table 5): 4 |
| O=[S+]([O-])(c1ccccc1)N1CCC(N(CCc2ccccc2)Cc2ccccc2)CC1 [Phenylsulfonyl, N-Benzyl-N-phenethyl-1-(phenylsulfonyl)piperidin-4-amine] | – | – | – | EC50 ([1]; Table 6, read-out: EC50): > 32.6 µM; CC50 [2]: > 100 µM |
| CCCCN1CCC(N(CCc2ccccc2)Cc2ccccc2)CC1 [Butyl, N-Benzyl-1-butyl-N-phenethylpiperidin-4-amine] | – | – | – | EC50 ([1]; Table 6, read-out: EC50): 1.55 µM; CC50 [2]: 17.9 µM |
| CC(C)CN1CCN([C@@H](c2ccccc2)c2ccc(Cl)cc2)CC1 [2-methyl-1-propyl (S), (S)-1-((4-Chlorophenyl)(phenyl)methyl)-4-isobutylpiperazine] | 51.7 ± 1.4 µM | 0.102 ± 0.018 µM | 507 | – |
| c1ccc(CCN(Cc2ccccc2)C2CCN(Cc3ccc(-c4ccccc4)cc3)CC2)cc1 [4-Phenylbenzyl, 1-([1,1′-Biphenyl]-4-ylmethyl)-N-benzyl-N-phenethylpiperidin-4-amine] | – | – | – | EC50 ([1]; Table 6, read-out: EC50): 12.2 µM; CC50 [2]: > 100 µM |
| O=C(O)COCCN1CCN(C(c2ccccc2)c2ccc(Cl)cc2)CC1 (racemic) [CH2CH2OCH2COOH (R,S), 2-(2-(4-((4-Chlorophenyl)(phenyl)methyl)piperazin-1-yl)ethoxy) acetic acid] | – | > 31.6 µM | – | – |
| c1ccc(C(c2ccccc2)C2CCNCC2)cc1 | – | – | – | EC50 ([1]; Table 5, read-out: EC50): 0.072 ± 0.002 µM; Selective Index ([1]; Table 5): 451; CC50 ([3]; Table 5): 32.5 ± 0.1 µM |
| COc1ccc(CN2CCN([C@@H](c3ccccc3)c3ccc(Cl)cc3)CC2)c(OC)c1 [2-4-dimethoxybenzyl (S), (S)-1-((4-Chlorophenyl)(phenyl)methyl)-4-(2,4-dimethoxybenzyl)piperazine] | 38.4 ± 4.2 µM | 0.456 ± 0.235 µM | 84 | – |
| NC(=O)COCCN1CCN(C(c2ccccc2)c2ccc(Cl)cc2)CC1 (racemic) [CH2CH2OCH2CONH2 (R,S), 2-(2-(4-((4-Chlorophenyl)(phenyl)methyl)piperazin-1-yl)ethoxy)acetamide] | > 100 µM | 0.103 ± 0.052 µM | >910 | – |
| NCCOCCN1CCN(C(c2ccccc2)c2ccc(Cl)cc2)CC1 (racemic) [CH2CH2OCH2CH2NH2 (R,S), 2-(2-(4-((4-Chlorophenyl)(phenyl)methyl)piperazin-1-yl)ethoxy)ethanamine] | 8.18 µM | 0.0048 ± 0.0011 µM | 1704 | – |
| CCCN1CCN([C@H](c2ccccc2)c2ccc(Cl)cc2)CC1 [n-Pr (R), (R)-1-((4-Chlorophenyl)(phenyl)methyl)-4-propylpiperazine] | 48.5 ± 1.1 µM | 0.024 ± 0.005 µM | 2021 | – |
| [2H]C([2H])([2H])N1CCN([C@@H](c2ccccc2)c2ccc(Cl)cc2)CC1 [CD3 (S), (S)-1-((4-Chlorophenyl)(phenyl)methyl)-4-methyl(d3)piperazine] | 77.9 ± 3.1 µM | 0.063 ± 0.025 µM | – | – |
| CCN1CCN([C@H](c2ccccc2)c2ccc(Cl)cc2)CC1 [Et (R), (R)-1-((4-Chlorophenyl)(phenyl)methyl)-4-ethylpiperazine] | 37.9 ± 3.3 µM | – | – | – |
| Clc1ccc(C(c2ccc(Cl)cc2)N2CCOCC2)cc1 | 62.1 ± 2.8 µM | – | – | EC50 ([1]; Table 5, read-out: EC50): 29.7 ± 0.1 µM; Selective Index ([1]; Table 5): 2 |
| [2H]C([2H])([2H])N1CCN([C@H](c2ccccc2)c2ccc(Cl)cc2)CC1 [CD3 (R), (R)-1-((4-Chlorophenyl)(phenyl)methyl)-4-methyl(d3)piperazine] | 46.7 ± 0.4 µM | 0.04 ± 0.017 µM | – | – |
| CC(=O)NCCOCCOCCOCCOCCN1CCN(C(c2ccccc2)c2ccc(Cl)cc2)CC1 (racemic) [(CH2CH2O)4CH2CH2NHC(═O)Me (R,S), N-(14-(4-((4-Chlorophenyl)(phenyl)methyl)piperazin-1-yl)-3,6,9,12-tetraoxatetradecyl)acetamide] | > 100 µM | 0.17 ± 0.022 µM | >588 | – |

| SMILES | CC50 ([3]; human) | EC50 ([1]; Table 3, read-out: EC50) | Selective Index ([1]; Table 3) | also measured |
| --- | --- | --- | --- | --- |
| [2H]C([2H])([2H])CN1CCN([C@@H](c2ccccc2)c2ccc(Cl)cc2)CC1 [CD3CH2 (S), (S)-1-((4-Chlorophenyl)(phenyl)methyl)-4-ethyl(2,2,2-d3)piperazine] | 71.3 ± 11.4 µM | – | – | – |
| CCCCN1CCN([C@H](c2ccccc2)c2ccc(Cl)cc2)CC1 [n-Bu (R), (R)-1-Butyl-4-((4-chlorophenyl)(phenyl)methyl)piperazine] | 40.8 ± 0.4 µM | 0.195 ± 0.084 µM | 309 | – |
| Clc1ccc([C@H](c2ccccc2)N2CCNCC2)cc1 [H (S), (S)-1-((4-Chlorophenyl)(phenyl)methyl)piperazine] | 9.31 ± 0.04 µM | 0.034 ± 0.012 µM | 0274 | – |
| O=C1c2ccccc2C(=O)N1CCOCCN1CCN(C(c2ccccc2)c2ccc(Cl)cc2)CC1 (centres unmarked) [2-(2-(2-(4-((4-Chlorophenyl)(phenyl)methyl)piperazin-1-yl)ethoxy)ethyl)isoindoline-1,3-dione] | > 100 µM | 1.54 ± 0.57 µM | >65 | – |
| Clc1ccc([C@H](c2ccccc2)N2CCN(C3CCCC3)CC2)cc1 [Cyclopentyl (S), (S)-1-((4-Chlorophenyl)(phenyl)methyl)-4-cyclopentylpiperazine] | 30.4 ± 2.8 µM | 0.019 ± 0.006 µM | 1600 | – |
| FC(F)(F)CN1CCN([C@@H](c2ccccc2)c2ccc(Cl)cc2)CC1 [CF3CH2 (S), (S)-1-((4-Chlorophenyl)(phenyl)methyl)-4-(2,2,2-trifluoroethyl)piperazine] | > 100 µM | > 31.6 µM | – | – |
| CCCN1CCN([C@@H](c2ccccc2)c2ccc(Cl)cc2)CC1 [n-Pr (S), (S)-1-((4-Chlorophenyl)(phenyl)methyl)-4-propylpiperazine] | 39.7 ± 0.9 µM | 0.032 ± 0.018 µM | 1241 | – |
| CC(C)(C)OC(=O)NCCOCCOCCOCCOCCN1CCN(C(c2ccccc2)c2ccc(Cl)cc2)CC1 (racemic) [(CH2CH2O)4(CH2)2NHC(═O)Ot-Bu (R,S), tert-Butyl (14-(4-((4-chlorophenyl)(phenyl)methyl)piperazin-1-yl)-3,6,9,12-tetraoxatetradecyl)carbamate] | 19 ± 4 µM | 0.199 ± 0.03 µM | 95 | – |
| FC(F)(F)CN1CCN([C@H](c2ccccc2)c2ccc(Cl)cc2)CC1 [CF3CH2 (R), (R)-1-((4-Chlorophenyl)(phenyl)methyl)-4-(2,2,2-trifluoroethyl)piperazine] | > 100 µM | > 31.6 µM | – | – |
| CN1CCC(N(c2ccccc2)c2ccccc2)CC1 | 56.8 ± 8.2 µM | – | – | EC50 ([1]; Table 5, read-out: EC50): 2.72 ± 1.13 µM; Selective Index ([1]; Table 5): 21 |
| CN1CCC(N(c2ccccc2)c2ccc(OC(C)(C)C)cc2)CC1 | 78.7 ± 0.6 µM | – | – | EC50 ([1]; Table 5, read-out: EC50): 0.354 ± 0.097 µM; Selective Index ([1]; Table 5): 222 |
| CN1CCCN(C(c2ccccc2)c2ccc(Cl)cc2)CC1 (centres unmarked) | – | – | – | EC50 ([1]; Table 5, read-out: EC50): 0.057 ± 0.008 µM; Selective Index ([1]; Table 5): 225; CC50 ([3]; Table 5): 12.8 ± 0.1 µM |
| [2H]C([2H])([2H])CN1CCN([C@H](c2ccccc2)c2ccc(Cl)cc2)CC1 [CD3CH2 (R), (R)-1-((4-Chlorophenyl)(phenyl)methyl)-4-ethyl(2,2,2-d3)piperazine] | 81.5 ± 0.5 µM | – | – | – |
| Clc1ccc([C@H](c2ccccc2)N2CCN(C3CCCCC3)CC2)cc1 [Cyclohexyl (S), (S)-1-((4-Chlorophenyl)(phenyl)methyl)-4-cyclohexylpiperazine] | 12.3 ± 0.3 µM | 0.177 ± 0.037 µM | 69 | – |
| CCCCN1CCN([C@@H](c2ccccc2)c2ccc(Cl)cc2)CC1 [n-Bu (S), (S)-1-Butyl-4-((4-chlorophenyl)(phenyl)methyl)piperazine] | 31.1 ± 4.2 µM | 0.042 ± 0.023 µM | 740 | – |
| CC(C)CN1CCN([C@H](c2ccccc2)c2ccc(Cl)cc2)CC1 [2-methyl-1-propyl (R), (R)-1-((4-Chlorophenyl)(phenyl)methyl)-4-isobutylpiperazine] | 58.2 ± 7.2 µM | 0.232 ± 0.061 µM | 251 | – |
| OCCOCCN1CCN(C(c2ccc(Cl)cc2)c2ccc(Cl)cc2)CC1 [Cl, Cl, CH2CH2OCH2CH2OH, 2-(2-(4-(bis(4-Chlorophenyl)methyl)piperazin-1-yl)ethoxy)ethanol] | – | – | – | EC50 [1]: 0.0055 ± 0.0022 µM |
| Clc1ccc([C@@H](c2ccccc2)N2CCNCC2)cc1 [H (R), (R)-1-((4-Chlorophenyl)(phenyl)methyl)piperazine] | 12.5 ± 1.4 µM | 0.032 ± 0.022 µM | 391 | – |
| CC(C)N1CCN([C@@H](c2ccccc2)c2ccc(Cl)cc2)CC1 [i-Pr (S), (S)-1-((4-Chlorophenyl)(phenyl)methyl)-4-isopropylpiperazine] | 32.4 ± 3.8 µM | 0.013 ± 0.004 µM | 2492 | – |
| CC(=O)N1CCN([C@@H](c2ccccc2)c2ccc(Cl)cc2)CC1 [Acetyl (S), (S)-1-(4-((4-Chlorophenyl)(phenyl)methyl)piperazin-1-yl)ethanone] | 91.3 ± 1 µM | 22 ± 3.2 µM | 4 | – |
| CCN1CCN(C2c3ccccc3-c3ccc(Br)cc32)CC1 (centres unmarked) | 53.1 ± 1.3 µM | – | – | EC50 ([1]; Table 5, read-out: EC50): 1.68 ± 0.45 µM; Selective Index ([1]; Table 5): 32 |
